Test results from patent publication US20060142271A1, “Novel lapacho compounds and methods of use thereof” (priority 2002, published 2006).
Where two headings read alike, the source gives them in different places.

Experiments:
[1] = test system: HaCaT cells; assay: HaCaT keratinocyte proliferation assay (cell counting); format: cell-based, human; details: for inhibition of HaCaT cell proliferation (in words): HaCaT cells; for IC50: antiproliferative activity against HaCaT cells, N = 3, read-out: AA in HaCaT Cells IC50
Procedure: Anthralin, an antipsoriatic drug, was used as a positive control. Antiproliferative activity was measured directly by counting the dispersed cells under a phase-contrast microscope.
HaCaT keratinocyte proliferation assay and LDH release were described previously in full detail (Muller et al. J. Med. Chem. 39: 3132-3138, 1996; Müller et al. J. Med. Chem. 37: 1660-1669, 1994). For the cancer cell line studies, exponentially growing cells were seeded at 1,000 cells per well in six-well plates and allowed to attach for 24 h. Compounds of the invention or β-lapachone, solubflized in DMSO, were added to the wells in micromolar concentrations. Control wells were treated with equivalent volumes of DMSO. After 4 h the supernatant was removed and fresh medium was added. Cultures were observed daily for 10-15 days and then were fixed and stained. Colonies of greater than 30 cells were scored as survivors. […]

[2] = test system: HaCaT cells; format: cell-based, human; details: for LDH (mU): human, 2 μM
Procedure: (§1) HaCaT keratinocyte proliferation assay and LDH release were described previously in full detail (Muller et al. J. Med. Chem. 39: 3132-3138, 1996; Müller et al. J. Med. Chem. 37: 1660-1669, 1994). For the cancer cell line studies, exponentially growing cells were seeded at 1,000 cells per well in six-well plates and allowed to attach for 24 h. Compounds of the invention or β-lapachone, solubflized in DMSO, were added to the wells in micromolar concentrations. Control wells were treated with equivalent volumes of DMSO. After 4 h the supernatant was removed and fresh medium was added. Cultures were observed daily for 10-15 days and then were fixed and stained. Colonies of greater than 30 cells were scored as survivors.
The cytotoxicity of naphthoquinones has been thought to result, at least in part, from reactive oxygen species, generated during redox cycling between the […] and reduction products (Munday, R., Free Radic. Biol. Med., 22, 689-695, 1997), which cause peroxidative damage to membrane lipids. To assess the correlation of keratinocyte growth inhibition with membrane damage, the release of lactate dehydrogenase from the treated cells was also quantitated.

[3] = test system: colon cancer cell line DLD1; assay: Cancer cell line colony survival assay, DLD1; format: cell-based, human; details: colon cancer cell line DLD1, 4 h exposure, colonies after 10-15 days, read-out: AA in Cancer Cell Lines IC50 (μM) DLD1
Procedure: as §1

[4] = test system: colon cancer cell line SW480; assay: Cancer cell line colony survival assay, SW480; format: cell-based, human; details: colon cancer cell line SW480, 4 h exposure, colonies after 10-15 days, read-out: AA in Cancer Cell Lines IC50 (μM) SW480
Procedure: as §1

[5] = test system: breast cancer cell line MCF7; assay: Cancer cell line colony survival assay, MCF7; format: cell-based, human; details: breast cancer cell line MCF7, 4 h exposure, colonies after 10-15 days, read-out: AA in Cancer Cell Lines IC50 (μM) MCF7
Procedure: as §1

Row | SMILES | inhibition of HaCaT cell proliferation (in words) [1] | IC50 ([1]; Homo sapiens) | LDH release compared to vehicle control (in words) [2] | LDH (mU) [2] | IC50 ([3]; Homo sapiens, DLD-1) | IC50 ([4]; Homo sapiens) | IC50 ([5]; Homo sapiens) | further results
1 | CC(=O)c1cc2c(o1)C(=O)c1ccccc1C2=O [Compound 6, 2-Acetyl-naphtho[2,3-b]furan4,9-dione] | inhibited cell proliferation | 0.5 µM | significant LDH release as compared to vehicle | 331 mU | 0.8 µM | ≤ 1 µM | ≤ 1 µM | –
2 | COc1ccc(C(=O)c2cc3cc4ccccc4cc3s2)cc1 [Compound 62a, (4-Methoxyphenyl)-naphtho[2,3-b]thiophen-2-yl-methanone] | – | > 5 µM | – | – | > 32 µM | > 32 µM | > 32 µM | –
3 | COc1ccc(C(=O)c2cc3c(s2)C(=O)c2ccccc2C3=O)cc1 [Compound 62b, 2-(4-Methoxybenzoyl)-naphtho[2,3-b]thiophene-4,9-dione] | – | > 5 µM | – | – | 5.5 µM | 16 µM | 3 µM | –
4 | O=C(c1ccc(O)cc1)c1cc2c(s1)C(=O)c1ccccc1C2=O [Compound 62c, 2-(4-Hydroxybenzoyl)-naphtho[2,3-b]thiophene-4,9-dione] | – | 2.7 µM | – | 123 mU | 5.3 µM | 12 µM | 2 µM | –
5 | CC(=O)c1cc2cc3ccccc3cc2s1 [Compound 63a, Naphtho[2,3-b]thiophen-2-yl-ethanone] | inhibited cell proliferation at concentrations comparable to β-lapachone and the furan analogs | – | without significant elevation of LDH release over the vehicle control | – | – | – | – | IC50 [1]: 5 µM; IC50 [3]: > 32 µM; IC50 [4]: > 32 µM; IC50 [5]: > 32 µM
6 | O=C(c1ccc([N+](=O)[O-])cc1)c1cc2c(s1)C(=O)c1ccccc1C2=O [Compound 66b, 2-(4-Nitrobenzoyl)-naphtho[2,3-b]thiophene-4,9-dione] | – | 4 µM | – | – | 25 µM | – | – | melting point: 270 °C
7 | CC(=O)c1cc2cc3ccccc3cc2o1 [Compound 73a, Naphtho[2,3-b]furan-2-yl-ethanone] | – | – | – | – | – | – | – | IC50 [1]: > 5 µM; IC50 [3]: > 32 µM; IC50 [4]: > 32 µM; IC50 [5]: > 32 µM
8 | O=C(c1ccccc1)c1cc2c(o1)C(=O)c1ccccc1C2=O [Compound 74b, 2-Benzoyl-naphtho[2,3-b]furan-4,9-dione] | – | 0.7 µM | – | 222 mU | – | – | – | melting point: 198 to 200 °C
9 | COc1ccc(C(=O)c2cc3cc4ccccc4cc3o2)cc1OC [Compound 75a, (3,4-Dimethoxyphenyl)-naphtho[2,3-b]furan-2-yl-methanone] | – | > 5 µM | – | – | 14 µM | 30 µM | 12 µM | –
10 | COc1ccc(C(=O)c2cc3c(o2)C(=O)c2ccccc2C3=O)cc1OC [Compound 75b, 2-(3,4-Dimethoxybenzoyl)-naphtho[2,3-b]furan:4,9-dione] | – | – | – | – | – | – | – | IC50 [1]: 2.5 µM; IC50 [3]: 1.4 µM
11 | CC(=O)Oc1cccc2c1C(=O)c1ccsc1C2=O [Compound 81, 5-Acetoxy-naphtho[2,3-b]thiophene-4,9-dione] | inhibited cell proliferation at concentrations comparable to β-lapachone and the furan analogs | 1.4 µM | without significant elevation of LDH release over the vehicle control | 160 mU | – | – | – | –
12 | O=C1c2cccc(O)c2C(=O)c2ccsc21 [Compound 82, 5-Hydroxy-naphtho[2,3-b]thiophene-4,9-dione] | inhibited cell proliferation at concentrations comparable to β-lapachone and the furan analogs | 1 µM | without significant elevation of LDH release over the vehicle control | 117 mU | – | – | – | –
13 | O=C1c2c(O)cccc2Cc2cccc(O)c21 [anthralin, reference compound] | – | 0.7 µM | LDH release significantly higher than vehicle controls | 294 mU | – | – | – | –
